Laboratory results as given in patent EP2123668A1, “Immunogenic polypeptides that mimic the surface polysaccharide O-antigen from serotype 2A shigella flexneri, method for obtaining the same, and their use in vaccine and diagnostic compositions” (INSTITUT PASTEUR, priority 2008, dated 2009).
Read-outs that look alike come from different tables or passages of the source. No end group written: not given here.

Key:
[1] = system: F22-4 antibody; experiment: ITC microcalorimetry; assay type: binding, murine
Text: ITC experiments with F22-4 antibody and several chemically synthesized oligosaccharidic fragments of O-Ag 2a lead to two major results.

[2] = molecular target: mAb F22-4; experiment: Biacore antibody-ligand binding (equilibrium and kinetic analysis); design: species or system murine
[3] = molecular target: mAb F22-4; experiment: StopFlow antibody-ligand binding; design: species or system murine
[4] = molecular target: LPS/F22-4; experiment: ELISA inhibition of LPS/F22-4 binding; design: species or system murine
[5] = system: LPS/F22-4; conditions: cited from earlier work
[6] = molecular target: mAb F22-4; experiment: Biacore antibody-ligand binding (equilibrium and kinetic analysis); design: species or system murine; conditions: equilibrium analysis; read-out: Biacore Eq KD
[7] = molecular target: LPS/F22-4; experiment: ELISA inhibition of LPS/F22-4 binding; design: species or system murine; remark: listed apart in the source
[8] = system: S. flexneri 2a mAb (F22-4); experiment: Reactivity of selected or conjugated peptides with the F22-4 mAb; assay type: binding, murine; conditions: conjugated peptides, coupled to BSA
Text: Two protective mAbs directed against S. flexneri LPS 2a (IgG C1-7 and IgG F22-4) were used for mimotope selection using the two libraries displaying 12 amino acid-long inserts.
The peptides have been synthesized with a flanking region AEGEF at the N-terminal and DPAKC at the C-terminal. The peptides have been conjugated to maleimide-activated bovine serum albumin (BSA) and to maleimide-activated keyhole limpet hemocyanine (KLH) using a kit from Pierce. The seven different sequences have been selected by Partner 4, all showing good reactivity with the S. flexneri 2a mAb (F22-4) and being inhibited by the LPS. Five of the sequences, B24, B1, C8, C26 and C17 (shown below in bold) have been chosen for further analyzes. The reason that the peptides C22 and C3 have been omitted are that they contain cysteine and the conjugation procedure that we exploited used cysteine for coupling to the protein. The conjugated peptides have been tested for reactivity with the F22-4 mAb and were positive when coupled to BSA. […] Sequences of peptides selected using the S. flexneri 2a specific mAb F22-4

[9] = PBS buffer at 25°C, read-out: KD
[10] = equilibrium analysis, read-out: Biacore Eq KD
[11] = kinetic analysis, read-out: Biacore Cin KD
[12] = Table 6 recapitulation, read-out: microcal KD

Compound | ΔH (Kcal/mol) ([1]; PBS buffer at 25°C) | ΔS (cal/mol/K) ([1]; PBS buffer at 25°C) | Kd [1, 9] | Kd [2, 10] | Biacore Cin koff(s-1) ([2]; kinetic analysis) | Kd [2, 11] | Kd [3] | StopFlow koff(s-1) [3] | StopFlow kon(M-1.s-1) [3] | Kd [1, 12] | IC50 [4] | effectiveness in inhibition compared with ECD ([5]; LPS/F22-4 inhibition studies (12), (13)) | IC50 compared with B(E)CDA'B'(E')C' ([5]; reference (12)) | Kd [6] | IC50 [7] | reactivity with the F22-4 mAb [8]
COC1OC(C)C(O)C(O)C1OC1OC(CO)C(O)C(OC2OC(C)C(OC3OC(CO)C(O)C(O)C3O)C(O)C2O)C1NC(C)=O (stereo not drawn) [ECDA] | -11,3±0,1 Kcal/mol | -19.2 cal/mol/K | 89 ± 1 µM |  |  |  |  |  |  |  |  |  |  |  |  | 
COC1OC(C)C(OC2OC(CO)C(O)C(O)C2O)C(OC2OC(C)C(O)C(O)C2OC2OC(C)C(O)C(O)C2OC2OC(CO)C(O)C(OC3OC(C)C(OC4OC(CO)C(O)C(O)C4O)C(OC4OC(C)C(O)C(O)C4O)C3O)C2NC(C)=O)C1O (stereo not drawn) [B(E)CDAB(E)C] | -19,5±0,2 Kcal/mol | -36,6 cal/mol/K | 0.47 µM | 0.61 µM | 0,068±0,03 s-1 | 0.75 µM | 0.16 µM | 0,05 s-1 | 3,10E+05 M-1.s-1 | 0.47 µM | 0.22 µM | about three orders of magnitude more effective |  |  |  | 
CO[C@@H]1O[C@@H](C)[C@H](O[C@H]2O[C@H](CO)[C@@H](O)[C@H](O)[C@H]2O)[C@@H](O[C@@H]2O[C@@H](C)[C@H](O)[C@@H](O)[C@H]2O[C@@H]2O[C@@H](C)[C@H](O)[C@@H](O)[C@H]2O[C@@H]2O[C@H](CO)[C@@H](O)[C@H](O)[C@H]2NC(C)=O)[C@H]1O [DAB(E)C] |  |  |  |  |  |  | > 1100 µM |  |  |  | > 1000 µM |  |  |  |  | 
COC1OC(C)C(OC2OC(CO)C(O)C(O)C2O)C(OC2OC(C)C(O)C(O)C2OC2OC(C)C(O)C(O)C2OC2OC(CO)C(O)C(OC3OC(C)C(OC4OC(CO)C(O)C(O)C4O)C(OC4OC(C)C(O)C(O)C4OC4OC(C)C(O)C(O)C4OC4OC(CO)C(O)C(O)C4NC(C)=O)C3O)C2NC(C)=O)C1O (stereo not drawn) [DAB(E)CDAB(E)C] | -19,5±01,2 Kcal/mol | -41,2 cal/mol/K | 5.4 µM | 5.32 µM | 0,123±0,04 s-1 | 4.47 µM | 5 µM | 0,29 s-1 | 5,90E+04 M-1.s-1 | 5.4 µM | 5 ± 1.4 µM |  | only an order of magnitude higher |  |  | 
CC(=O)N[C@@H]1[C@@H](O[C@@H]2O[C@@H](C)[C@H](O[C@H]3O[C@H](CO)[C@@H](O)[C@H](O)[C@H]3O)[C@@H](O[C@@H]3O[C@@H](C)[C@H](O)[C@@H](O)[C@H]3O[C@@H]3O[C@@H](C)[C@H](O)[C@@H](O)[C@H]3O[C@@H]3O[C@H](CO)[C@@H](O)[C@H](O[C@@H]4O[C@@H](C)[C@H](O[C@H]5O[C@H](CO)[C@@H](O)[C@H](O)[C@H]5O)[C@@H](O[C@@H]5O[C@@H](C)[C@H](O)[C@@H](O)[C@H]5O[C@@H]5O[C@@H](C)[C@H](O)[C@@H](O)[C@H]5O[C@@H]5O[C@H](CO)[C@@H](O)[C@H](O[C@@H]6O[C@@H](C)[C@H](O[C@H]7O[C@H](CO)[C@@H](O)[C@H](O)[C@H]7O)[C@@H](O[C@@H]7O[C@@H](C)[C@H](O)[C@@H](O)[C@H]7O[C@@H]7O[C@@H](C)[C@H](O)[C@@H](O)[C@H]7O)[C@H]6O)[C@H]5NC(C)=O)[C@H]4O)[C@H]3NC(C)=O)[C@H]2O)[C@H](O)[C@@H](CO)O[C@H]1O [[AB(E)CD]3] | -17,3±0,8 Kcal/mol | -30,6 cal/mol/K | 1.03 µM | 0.56 µM | 0,075+0,005^(H) s-1 | 1.56 µM | 0.69 µM | 0,11 s-1 | 1,70E+05 M-1.s-1 | 1.03 µM | 0.32 µM |  |  |  |  | 
YLEDWIKYNNQK [Peptide B1] | -24,0 ±0,1 Kcal/mol | -54,6 cal/mol/K |  |  |  |  |  |  |  | 2.49 µM |  |  |  | 2.98 µM | ~3 µM | 
CO[C@@H]1O[C@@H](C)[C@H](O)[C@@H](O)[C@H]1O[C@@H]1O[C@H](CO)[C@@H](O)[C@H](O[C@@H]2O[C@@H](C)[C@H](O[C@H]3O[C@H](CO)[C@@H](O)[C@H](O)[C@H]3O)[C@@H](O[C@@H]3O[C@@H](C)[C@H](O)[C@@H](O)[C@H]3O)[C@H]2O)[C@H]1NC(C)=O [B(E)CDA] | -14,2±0,1 Kcal/mol | -22,7 cal/mol/K | 3.35 µM | 4.1 µM |  |  | 3.5 µM | 2,4 s-1 | 7,00E+05 M-1.s-1 | 3.35 µM | 2.5 µM |  |  |  |  | 
CC(=O)N[C@@H]1[C@@H](O[C@@H]2O[C@@H](C)[C@H](O[C@H]3O[C@H](CO)[C@@H](O)[C@H](O)[C@H]3O)[C@@H](O[C@@H]3O[C@@H](C)[C@H](O)[C@@H](O)[C@H]3O[C@@H]3O[C@@H](C)[C@H](O)[C@@H](O)[C@H]3O[C@@H]3O[C@H](CO)[C@@H](O)[C@H](O[C@@H]4O[C@@H](C)[C@H](O[C@H]5O[C@H](CO)[C@@H](O)[C@H](O)[C@H]5O)[C@@H](O[C@@H]5O[C@@H](C)[C@H](O)[C@@H](O)[C@H]5O[C@@H]5O[C@@H](C)[C@H](O)[C@@H](O)[C@H]5O)[C@H]4O)[C@H]3NC(C)=O)[C@H]2O)[C@H](O)[C@@H](CO)O[C@H]1O [[AB(E)CD]2] | -17,7±0,7 Kcal/mol | -31,7 cal/mol/K | 1.04 µM | 1 µM | 0,074±0,004 s-1 | 1.09 µM | 1.5 µM | 0,13 s-1 | 8,30E+04 M-1.s-1 | 1.04 µM | 0.7 µM |  |  |  |  | 
CO[C@@H]1O[C@@H](C)[C@H](O)[C@@H](O)[C@H]1O[C@@H]1O[C@@H](C)[C@H](O)[C@@H](O)[C@H]1O[C@@H]1O[C@H](CO)[C@@H](O)[C@H](O[C@@H]2O[C@@H](C)[C@H](O[C@H]3O[C@H](CO)[C@@H](O)[C@H](O)[C@H]3O)[C@@H](O)[C@H]2O)[C@H]1NC(C)=O [ECDAB] | -10,8±0,1 Kcal/mol | -19,6 cal/mol/K | 230 ± 2 µM |  |  |  | 300 µM |  |  | 230 ± 2 µM | 354 ± 40 µM |  |  |  |  | 
AEGEFPHGEIFHMMRRPDPAKC-COOH (AEGEFPHGEIFHMMRRPDPAKC-OH) [Peptide C17] |  |  |  |  |  |  |  |  |  |  |  |  |  |  |  | poor reactivity
